US7833991B2, “Amine compound and use thereof” (Kureha Corporation, priority 2002, dated 2010)
pEC50: −log10 of the molar value. Where two headings read alike, the source gives them in different places.

Tests used:
ICR mice = experiment: Acute toxicity in mice, single administration via tail vein (Test Example 3); format: in vivo; settings: ICR mice (male), 2.5 mg/kg once
Procedure: The aforementioned compound was examined for acute toxicity. Specifically, 7-week-old ICR mice (male) were divided into several groups (4 or 5 mice in each group), and the mice were bred for 1 week for habituation. Subsequently, each of the compounds of Examples was dissolved in distilled water or physiological saline, and the solution was administered to the mice via tail vein (dose: 2.5 mg/kg) once. Then, dead mice were counted.

[1] = tested on: HIV-1IIIB infected MT-4 cells; experiment: Antiviral activity in HIV-1IIIB infected MT-4 cells, MTT method (Test Examples 1 and 5); format: cell-based
Procedure: Immediately after infection, HIV-1IIIB infected MT-4 cells (3.0×10^4/well, MOI (Multiplicity of infection): 0.01) were added to a 96-well microtiter plate together with the test compounds having different concentrations. The cells were cultured in a carbon dioxide incubator at 37° C. for 5 days, and the number of living cells was measured in accordance with the MTT (tetrazolium) method (Pawels, et al., Journal of Virology Method, 20, 309-321 ([…])). The antiviral activity is represented by the concentration required for inhibition of cell disorder due to HIV by 50% (EC50: 50% Effective Concentration) (μM), and the results are shown in Table 2.
(§1) Compounds of the present invention having various substituted and unsubstituted heterocyclic rings for the substituent A2 of formula (1) were tested for antiviral (anti-HIV) activity as in Test Example 1 and for CXCR4 activity as in Test Example 2. The compounds, various substituents of the compounds, antiviral activity represented by the concentration required for inhibition of all disorder due to HIV injection by 50% (EC50: 50% Effective Concentration, μM), and CXCR4 activity calculated as a rate of inhibition of the binding between radioactive ligands and CXCR4 receptors by a test material (a binding-inhibition % at 0.1 μM) are shown in Table 5: […]

CXCR4 = target: T1, CXCR4 (Homo sapiens, UniProt P61073); experiment: Inhibition of 125I-SDF-1α binding to receptors CXCR4 on MT-4 cells (Test Examples 2 and 5); settings: binding-inhibition % at 0.1 μM
T1 construct: endogenous in cells; host or cells: MT-4 cells
T1 sequence (P61073 whole entry): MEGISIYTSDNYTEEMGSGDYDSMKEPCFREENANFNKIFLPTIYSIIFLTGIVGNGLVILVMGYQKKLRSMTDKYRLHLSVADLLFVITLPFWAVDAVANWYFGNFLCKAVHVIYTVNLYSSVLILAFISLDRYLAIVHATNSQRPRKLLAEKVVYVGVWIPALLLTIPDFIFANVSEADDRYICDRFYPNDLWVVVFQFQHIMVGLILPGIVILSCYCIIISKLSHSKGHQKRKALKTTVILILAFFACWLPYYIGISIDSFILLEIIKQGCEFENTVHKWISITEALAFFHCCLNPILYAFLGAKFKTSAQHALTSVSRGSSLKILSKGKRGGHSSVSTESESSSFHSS
Procedure: MT-4 cells (5×10^6/0.2 ml/well) were cultured on a 24-well microtiter plate. After the cells were incubated for 24 hours at 37° C. in a carbon dioxide gas incubator, a culture medium was replaced with a buffer solution (0.1% BSA-containing RPMI-1640). Together with a ligand ^125I-SDF-1α, (specific activity: 2,200 Ci/mmol; available from Daiichi Pure Chemicals Co., Ltd. (Tokyo)), test materials with various concentrations were subjected to a binding reaction for 2 hours under ice-cooling. […] Then, a rate of inhibition of the binding between radio-active ligands and receptors CXCR4 by a test material was calculated (a binding-inhibition % at 0.1 μM).
as §1

[2] = Human immunodeficiency virus 1, MT4, 120 h, concentration required for inhibition of cell disorder due to HIV by 50%, MT-4 cells, MOI 0.01, 5 days, MTT method, read-out: EC50
[3] = 125I-SDF-1α, MT-4 cells, 2 hours under ice-cooling, read-out: Inhibition rate (%)
[4] = Human immunodeficiency virus 1, MT4, as in Test Example 1, Table 5, read-out: HIV Activity EC50
[5] = as in Test Example 2, Table 5, read-out: CXCR4 Activity % at 0.1 μM

SMILES | Dead mice/test mice (ICR mice) | pEC50 [1, 2] | inhibition at 0.1 µM (CXCR4; [3]) [%] | pEC50 [1, 4] | inhibition at 0.1 µM (CXCR4; [5]) [%]
O=C(NCCCCNCc1ccccc1OC(F)(F)F)c1ccc(CN(Cc2ncc[nH]2)Cc2ncc[nH]2)cc1 [Compound No. 12, 4-{[bis(1H-imidazol-2-ylmethyl)-amino]-methyl}-N-[4-(2-trifluoromethoxy)-benzylamino-butyl]-benzamide] | 0/5 | 7.31 | 95 | – | –
CN(CCCCNS(=O)(=O)c1ccc(CN(Cc2ncc[nH]2)Cc2nccn2C)cc1)C1CCCCC1 [Compound No. 109, N-[4-(cyclohexyl-methyl-amino)-butyl]-4-{[(1H-imidazol-2-ylmethyl)-(1-methyl-1H-imidazol-2-ylmethyl)-amino]-methyl}-benzenesulfonamide] | 0/5 | 8.70 | 100 | – | –
CCCN(CCC)CCCCNCc1ccc(CN(Cc2ncc[nH]2)Cc2ncc[nH]2)cc1 [Compound No. 25, N-(4-{[bis(1H-imidazol-2-ylmethyl)-amino]-methyl}-benzyl)-N′,N′-dipropylbutane-1,4-diamine] | 0/5 | 8.70 | 100 | – | –
CCCN(CCC)CCCCN(C)Cc1ccc(CN(Cc2ncc[nH]2)Cc2nnc[nH]2)cc1 [Compound No. 116, N-(4-{[(imidazol-2-ylmethyl)-([1,2,4]-triazol-3-ylmethyl)-amino]-methyl}-benzyl)-N-methyl-N′,N′-dipropylbutane-1,4-diamine] | 0/5 | 8.70 | 100 | – | –
NCCCCNC(=O)c1ccc(CN(Cc2ncc[nH]2)Cc2ncc[nH]2)cc1 [Compound No. 3, 4-{[bis(1H-imidazol-2-ylmethyl)-amino]-methyl}-N-(4-aminobutyl)-benzamide] | 0/5 | 8.52 | 100 | – | –
CCCN(CCC)CCCCNCc1ccc(CN(Cc2ccc(C)cn2)Cc2ncc[nH]2)cc1 [Compound No. 75, N-(4-{[(1H-imidazol-2-ylmethyl)-(5-methylpyridine-2-ylmethyl)-amino]-methyl}-benzyl)-N′,N′-dipropylbutane-1,4-diamine] | 0/5 | 8.70 | 100 | – | –
O=C(NCCCCNCc1ccccc1C(F)(F)F)c1ccc(CN(Cc2ncc[nH]2)Cc2ncc[nH]2)cc1 [Compound No. 11, 4-{[bis(1H-imidazol-2-ylmethyl)-amino]-methyl}-N-[4-(2-trifluoromethyl)-benzylamino-butyl]-benzamide] | 0/5 | 7.64 | 95 | – | –
CCCN(CCC)CCCCN(C)Cc1ccc(CN(Cc2ncc[nH]2)Cc2nccn2C)cc1 [Compound No. 98, N-(4-{[(1H-imidazol-2-ylmethyl)-(1-methyl-1H-imidazol-2-ylmethyl)-amino]-methyl}-benzyl)-N-methyl-N′,N′-dipropylbutane-1,4-diamine] | 0/5 | 8.52 | 100 | – | –
CCCN(CCC)Cc1ccc(NC(=O)c2ccc(CN(Cc3ncc[nH]3)Cc3nc4ccccc4[nH]3)cc2)cc1 [Compound No. 61, N-(4-dipropylaminomethylphenyl)-4-{[(1H-imidazol-2-ylmethyl)-(1H-benzimidazol-2-ylmethyl)-amino]-methyl}-benzamide] | 0/5 | 8.70 | 100 | 8.70 | 100
CCCN(CCC)CCCCNC(=O)c1ccc(CN(Cc2ncc[nH]2)Cc2ncc[nH]2)cc1 [Compound No. 1, 4-{[bis(1H-imidazol-2-ylmethyl)-amino]-methyl}-N-(4-dipropylamino-butyl)-benzamide] | 0/5 | 8.40 | 100 | – | –
CCCN(CCC)Cc1ccc(NC(=O)c2ccc(CN(Cc3ncc[nH]3)Cc3ncc[nH]3)cc2)cc1 [Compound No. 19, 4-{[bis(1H-imidazol-2-ylmethyl)-amino]-methyl}-N-(4-dipropylaminomethylphenyl)-benzamide] | 0/5 | 8.70 | 100 | – | –
CC(C)CN(CCCCNC(=O)c1ccc(CN(Cc2ncc[nH]2)Cc2ncc[nH]2)cc1)CC(C)C [Compound No. 2, 4-{[bis(1H-imidazol-2-ylmethyl)-amino]-methyl}-N-(4-diisobutylamino-butyl)-benzamide] | 0/5 | 8.52 | 100 | – | –
CCCN(CCC)Cc1ccc(NC(=O)c2ccc(CN(Cc3ncc[nH]3)Cc3nccn3C)cc2)cc1 [Compound No. 49, N-(4-dipropylaminomethylphenyl)-4-{[(1H-imidazol-2-ylmethyl)-(1-methyl-1H-imidazol-2-ylmethyl)-amino]-methyl}-benzamide] | 0/5 | 8.70 | 100 | 8.70 | 100
